Patent publication US11498899B2, “Nitrone herbicides” (FMC Corporation, priority 2016, dated 2022)

Legend:
[1] = tested on: ducksalad (Heteranthera limosa); assay: Test B flooded paddy test, visual rating 0-100; conditions: Flood, 250 g ai/ha, applied to paddy water, rated after 13 to 15 days
[2] = tested on: foxtail, giant (giant foxtail, Setaria faberii); assay: Test A preemergence, visual injury rating 0-100; assay type: in vivo
[3] = tested on: ryegrass, Italian (Italian ryegrass, Lolium multiflorum); assay: Test A preemergence, visual injury rating 0-100; assay type: in vivo
[4] = tested on: ragweed (common ragweed, Ambrosia elatior); assay: Test A preemergence, visual injury rating 0-100; assay type: in vivo
kochia (Kochia scoparia) [5] = assay: Test A preemergence, visual injury rating 0-100; assay type: in vivo
[6] = tested on: pigweed (Amaranthus retroflexus); assay: Test A preemergence, visual injury rating 0-100; assay type: in vivo
[7] = tested on: barnyardgrass (Echinochloa crus-galli); assay: Test B flooded paddy test, visual rating 0-100; conditions: Flood, 250 g ai/ha, applied to paddy water, rated after 13 to 15 days
[8] = tested on: barnyardgrass (Echinochloa crus-galli); assay: Test A preemergence, visual injury rating 0-100 (0 no effect, 100 complete control); assay type: in vivo
rice (Oryza sativa) = assay: Test B flooded paddy test, visual rating 0-100 (0 no effect, 100 complete control); conditions: Flood, 250 g ai/ha, applied to paddy water, rated after 13 to 15 days
[9] = tested on: barnyardgrass (Echinochloa crus-galli); assay: Test A postemergence, visual injury rating 0-100; assay type: in vivo; conditions: 0 to 100 scale
Description: (§1) Seeds of plant species selected from barnyardgrass (Echinochloa crus-galli), kochia (Kochia scoparia), ragweed (common ragweed, Ambrosia elatior), ryegrass, Italian (Italian ryegrass, Lolium multiflorum), foxtail, giant (giant foxtail, Setaria faberii), foxtail, green (green foxtail, Setaria viridis), and pigweed (Amaranthus retroflexus) were planted into a blend of loam soil and sand and treated preemergence with a directed soil spray using test chemicals formulated in a non-phytotoxic solvent mixture which included a surfactant.
(§2) At the same time, plants selected from these weed species and also wheat (Triticum aestivum), corn (Zea mays), blackgrass (Alopecurus myosuroides), and galium (catchweed bedstraw, Galium aparine) were planted in pots containing the same blend of loam soil and sand and treated with postemergence applications of test chemicals formulated in the same manner. Plants ranged in height from 2 to 10 cm and were in the one- to two-leaf stage for the postemergence treatment. Treated plants and untreated controls were maintained in a greenhouse for approximately 10 days, after which time all treated plants were compared to untreated controls and visually evaluated for injury. […] A dash (-) response means no test result.

[10] = tested on: foxtail, giant (giant foxtail, Setaria faberii); assay: Test A postemergence, visual injury rating 0-100; assay type: in vivo; conditions: 0 to 100 scale
Description: as §1, §2

[11] = tested on: ryegrass, Italian (Italian ryegrass, Lolium multiflorum); assay: Test A postemergence, visual injury rating 0-100; assay type: in vivo; conditions: 0 to 100 scale
Description: as §1, §2

[12] = tested on: blackgrass (Alopecurus myosuroides); assay: Test A postemergence, visual injury rating 0-100; assay type: in vivo; conditions: 0 to 100 scale
Description: as §1, §2

corn (Zea mays) = assay: Test A postemergence, visual injury rating 0-100; assay type: in vivo; conditions: 0 to 100 scale
Description: as §1, §2

[13] = tested on: wheat (Triticum aestivum); assay: Test A postemergence, visual injury rating 0-100; assay type: in vivo; conditions: 0 to 100 scale
Description: as §1, §2

[14] = tested on: ragweed (common ragweed, Ambrosia elatior); assay: Test A postemergence, visual injury rating 0-100; assay type: in vivo; conditions: 0 to 100 scale
Description: as §1, §2

kochia (Kochia scoparia) [15] = assay: Test A postemergence, visual injury rating 0-100; assay type: in vivo; conditions: 0 to 100 scale
Description: as §1, §2

[16] = tested on: pigweed (Amaranthus retroflexus); assay: Test A postemergence, visual injury rating 0-100; assay type: in vivo; conditions: 0 to 100 scale
Description: as §1, §2

[17] = tested on: galium (catchweed bedstraw, Galium aparine); assay: Test A postemergence, visual injury rating 0-100; assay type: in vivo; conditions: 0 to 100 scale
Description: as §1, §2

[18] = 31 g ai/ha, 0 to 100 scale (0 no effect, 100 complete control), approx. 10 days

Structure (SMILES)	Ducksalad plant response rating (0 to 100 scale) [1]	Foxtail, Giant plant response rating (0 to 100 scale) ([2]; 125 g ai/ha)	Ryegrass, Italian plant response rating (0 to 100 scale) ([3]; 125 g ai/ha)	Ragweed plant response rating (0 to 100 scale) ([4]; 125 g ai/ha)	Kochia plant response rating (0 to 100 scale) (kochia (Kochia scoparia) [5]; 125 g ai/ha)	Pigweed plant response rating (0 to 100 scale) ([6]; 125 g ai/ha)	Barnyardgrass plant response rating (0 to 100 scale) [7]	Barnyardgrass plant response rating (0 to 100 scale) ([8]; 125 g ai/ha)	Rice plant response rating (0 to 100 scale) (rice (Oryza sativa))	Barnyardgrass plant response rating ([9]; 125 g ai/ha)	Foxtail, Giant plant response rating ([10]; 125 g ai/ha)	Ryegrass, Italian plant response rating ([11]; 125 g ai/ha)	Blackgrass plant response rating ([12]; 125 g ai/ha)	Corn plant response rating (corn (Zea mays); 125 g ai/ha)	Wheat plant response rating ([13]; 125 g ai/ha)	Ragweed plant response rating ([14]; 125 g ai/ha)	Kochia plant response rating (kochia (Kochia scoparia) [15]; 125 g ai/ha)	Pigweed plant response rating ([16]; 125 g ai/ha)	Galium plant response rating ([17]; 125 g ai/ha)	Ryegrass, Italian plant response rating (0 to 100 scale) ([3]; 500 g ai/ha)	other results
CC1=[N+]([O-])C(C(=O)Nc2cccc(F)c2F)C(c2ccc(F)c(Oc3ccc(F)cn3)c2)C1 (racemic) [Compound 48]	70	90	20	0	0	0	20	90	10	0	0	30	70	0	0	30	0	30	40		Foxtail, Giant plant response rating [2, 18]: 0; Ryegrass, Italian plant response rating [3, 18]: 0; Ragweed plant response rating [4, 18]: 0; Kochia plant response rating (kochia (Kochia scoparia) [5]; [18]): 0; Pigweed plant response rating [6, 18]: 0; Barnyardgrass plant response rating [8, 18]: 0; Barnyardgrass plant response rating ([9]; 31 g ai/ha): 0; Foxtail, Giant plant response rating ([10]; 31 g ai/ha): 0; Ryegrass, Italian plant response rating ([11]; 31 g ai/ha): 30; Blackgrass plant response rating ([12]; 31 g ai/ha): 30; Corn plant response rating (corn (Zea mays); 31 g ai/ha): 0; Wheat plant response rating ([13]; 31 g ai/ha): 0; Ragweed plant response rating ([14]; 31 g ai/ha): 0; Kochia plant response rating (kochia (Kochia scoparia) [15]; 31 g ai/ha): 0; Pigweed plant response rating ([16]; 31 g ai/ha): 0; Galium plant response rating ([17]; 31 g ai/ha): 20
CC1=[N+]([O-])C(C(=O)Nc2cccc(F)c2F)C(c2cccc(C)n2)C1 (racemic) [Compound 49]	0	0	0	0	0	0	0	10	0	0	0	0	0	0	0	20	0	0	0	20	Foxtail, Giant plant response rating ([2]; 500 g ai/ha, 0 to 100 scale): 40; Ragweed plant response rating (0 to 100 scale) ([4]; 500 g ai/ha): 0; Kochia plant response rating (0 to 100 scale) (kochia (Kochia scoparia) [5]; 500 g ai/ha): 0; Pigweed plant response rating (0 to 100 scale) ([6]; 500 g ai/ha): 0; Barnyardgrass plant response rating ([8]; 500 g ai/ha, 0 to 100 scale): 20; Barnyardgrass plant response rating ([9]; 500 g ai/ha): 0; Foxtail, Giant plant response rating ([10]; 500 g ai/ha): 0; Ryegrass, Italian plant response rating ([11]; 500 g ai/ha): 30; Blackgrass plant response rating ([12]; 500 g ai/ha): 0; Corn plant response rating (corn (Zea mays); 500 g ai/ha): 0; Wheat plant response rating ([13]; 500 g ai/ha): 0; Ragweed plant response rating ([14]; 500 g ai/ha): 20; Kochia plant response rating (kochia (Kochia scoparia) [15]; 500 g ai/ha): 0; Pigweed plant response rating ([16]; 500 g ai/ha): 0; Galium plant response rating ([17]; 500 g ai/ha): 0
CC1=[N+]([O-])C(C(=O)Nc2cccc(F)c2F)C(c2cc(F)cc(Oc3ccc(Cl)nc3)c2)C1 (racemic) [Compound 50]	0	90	0	0	30	0	0	50	0	0	10	0	40	0	0	0	0	0	0	80	Foxtail, Giant plant response rating (0 to 100 scale) ([2]; 500 g ai/ha): 90; Ragweed plant response rating (0 to 100 scale) ([4]; 500 g ai/ha): 0; Kochia plant response rating (0 to 100 scale) (kochia (Kochia scoparia) [5]; 500 g ai/ha): 70; Pigweed plant response rating (0 to 100 scale) ([6]; 500 g ai/ha): 40; Barnyardgrass plant response rating (0 to 100 scale) ([8]; 500 g ai/ha): 90; Barnyardgrass plant response rating ([9]; 500 g ai/ha): 50; Foxtail, Giant plant response rating ([10]; 500 g ai/ha): 50; Ryegrass, Italian plant response rating ([11]; 500 g ai/ha): 20; Blackgrass plant response rating ([12]; 500 g ai/ha): 70; Corn plant response rating (corn (Zea mays); 500 g ai/ha): 40; Wheat plant response rating ([13]; 500 g ai/ha): 0; Ragweed plant response rating ([14]; 500 g ai/ha): 40; Kochia plant response rating (kochia (Kochia scoparia) [15]; 500 g ai/ha): 50; Pigweed plant response rating ([16]; 500 g ai/ha): 60; Galium plant response rating ([17]; 500 g ai/ha): 30
